Measured values taken from patent US9126986B2, “Hetero-bicyclic derivatives as HCV inhibitors” (Janssen R&D Ireland, priority 2011, dated 2015).
Like-named read-outs stand apart in the source and are kept apart here.

How the values were obtained:
[1] = test system: HCV replicon type 1b in Huh-Luc cells; assay: HCV replicon assay, stable transfection (Huh-7 luc/neo, luciferase readout); assay type: cell-based, HCV type 1b; conditions: stably transfected Huh-Luc cells, genotype 1b, three days incubation, average where tested more than once, read-out: HCV-REP-HUH7LUC_EC50
Text: The compounds of formula (I) were examined for inhibitory activity in the HCV replicon. This cellular assay is based on a bicistronic expression construct, as described by Lohmann et al. (Science (1999) 285: 110-113; Journal of Virology (2003) 77: 3007-3019) with modifications described by Krieger et al. (Journal of Virology (2001) 75: 4614-4624), and Lohmann et al. (Journal of Virology (2003) 77: 3007-3019) for genotype 1b and by Yi et al. (Journal of Virology (2004) 78: 7904-7915) for genotype 1a, in a multi-target screening strategy.
The method was as follows. The assay utilized the stably transfected cell line Huh-7 luc/neo (hereafter referred to as Huh-Luc). This cell line harbors an RNA encoding a bicistronic expression construct comprising the wild type NS3-NS5B regions of HCV type 1b translated from an Internal Ribosome Entry Site (IRES) from encephalomyocarditis virus (EMCV), preceded by a reporter portion (FfL-luciferase), and a selectable marker portion (neoR, neomycine phosphotransferase). The construct is flanked by 5′ and 3′ NTRs (non-translated regions) from HCV type 1b. Continued culture of the replicon cells in the presence of G418 (neoR) is dependent on the replication of the HCV RNA. The stably transfected replicon cells that replicate HCV RNA autonomously and to high levels, encoding inter alia luciferase, were used for screening the antiviral compounds.
The replicon cells were plated in 384 well plates in the presence of the test and control compounds which were added in various concentrations. Following an incubation of three days, HCV replication was measured by assaying luciferase activity (using standard luciferase assay substrates and reagents and a Perkin Elmer ViewLux™ ultraHTS microplate imager). Replicon cells in the control cultures have high luciferase expression in the absence of any inhibitor. The inhibitory activity of the compound was monitored on the Huh-Luc cells, enabling a dose-response curve for each test compound. EC50 values were then calculated, which represent the amount of compound required to decrease the level of detected luciferase activity by 50%, or more specifically, to reduce the ability of the genetically linked HCV replicon RNA to replicate.
Where a compound of formula (I) was tested more than once in the replicon assay, the average of all test results is given in this Table 1.

[2] = test system: HCV subgenomic replicon genotype 1b Con1 in Huh-7 lunet cells; assay: HCV replicon assay, transient transfection, genotype 1b Con1; assay type: cell-based, HCV genotype 1b Con1; conditions: transiently transfected Huh-7 lunet, genotype 1b Con1, two days incubation, luciferase
Text: (§1) In a transient set-up, a Huh-7 lunet hepatoma cell line was transiently transfected with an autonomously replicating RNA encoding a bi-cistronic expression construct. This construct comprises a firefly luciferase reporter gene preceding the NS3-NS5B subgenomic region of HCV (genotype 1a H77 or 1b Con1). Translation of the HCV subgenomic region is mediated by an internal ribosome entry site of encephalomyocarditis virus. The construct is furthermore flanked by 5′ and 3′ untranslated regions of HCV (genotype 1a H77 or 1b Con 1, respectively), which allow for replication of the RNA.
(§2) Cells were plated in 384 well plates in the presence of test and control compounds, which were added in various concentrations. Following an incubation of two days, replication of the HCV subgenomic replicon RNA was measured by assaying luciferase activity (using standard luciferase assay substrates and reagents and a Perkin Elmer ViewLux™ ultraHTS microplate imager). HCV subgenomic replicon containing cells in the control cultures have high luciferase expression in the absence of any inhibitor. The inhibitory activity of the compound was monitored, enabling a dose-response curve for each test compound. EC50 values were then calculated, which represent the amount of compound required to decrease the level of detected luciferase activity by 50%, or more specifically, to reduce the ability of the genetically linked HCV subgenomic RNA to replicate.

[3] = test system: HCV subgenomic replicon genotype 1a H77 in Huh-7 lunet cells; assay: HCV replicon assay, transient transfection, genotype 1a H77; assay type: cell-based, HCV genotype 1a H77; conditions: transiently transfected Huh-7 lunet, genotype 1a H77, two days incubation, luciferase
Text: as §1, §2

[4] = Counterscreen MT4-LTR-Luc; assay type: cell-based; conditions: human; MT4 T-cell line with long terminal repeat-Luc reporter
Text: (§3) Counterscreen cell lines included a Huh-7 hepatoma cell line containing a human cytomegalovirus major immediate-early promoter-Luc construct (Huh7-CMV-Luc) and an MT4 T-cell line containing a long terminal repeat-Luc reporter (MT4-LTR-Luc).

[5] = Counterscreen Huh7-CMV-Luc; assay type: cell-based; conditions: Huh-7 hepatoma cell line with human CMV major immediate-early promoter-Luc construct
Text: as §3

MT4-LTR-Luc cells = assay: Counterscreen MT4-LTR-Luc; assay type: cell-based; conditions: MT4 T-cell line with long terminal repeat-Luc reporter
Text: as §3

Row | SMILES | EC50 [1] [nM] | EC50 [2] [nM] | EC50 [3] [nM] | CC50 [4] [nM] | CC50 [5] [nM] | CC50 (MT4-LTR-Luc cells) [nM] | EC50 ([1]; Hepatitis C virus, Huh-7, 72 h) [nM] | EC50 ([2]; Hepatitis C virus, Huh-7, 48 h) [nM] | EC50 ([3]; Hepatitis C virus, Huh-7, 48 h) [nM]
1 | COC(=O)N[C@H](C(=O)N1CCCC1c1cc(=O)c2ccc(-c3ccc(-c4ccc(-c5cnc([C@@H]6CCCN6C(=O)[C@@H](NC(=O)OC)C(C)C)[nH]5)cc4)cc3)cc2[nH]1)C(C)C (single isomer, unassigned) [Compound 3a] | 0.021 | 0.025 | 0.008 | > 984 | > 984 | – | – | – | –
2 | COC(=O)N[C@H](C(=O)N1CCCC1c1cc(=O)c2ccc(-c3ccc(-c4ccc(-c5cnc([C@@H]6CCCN6C(=O)[C@@H](NC(=O)OC)C(C)C)[nH]5)cc4)cc3)cc2[nH]1)C(C)C (single isomer, unassigned) [Compound 3b] | 1.13 | 1.36 | 0.941 | – | – | > 984 | – | – | –
3 | COC(=O)N[C@H](C(=O)N1CCCC1c1cc(=O)c2ccc(-c3ccc4c(c3)C(F)(F)c3cc(-c5c[nH]c([C@@H]6CCCN6C(=O)[C@@H](NC(=O)OC)C(C)C)n5)ccc3-4)cc2[nH]1)C(C)C (single isomer, unassigned) [Compound 5a] | 0.014 | 0.013 | 0.007 | > 984 | > 984 | – | – | – | –
4 | COC(=O)N[C@H](C(=O)N1CCCC1c1cc(=O)c2ccc(-c3ccc4c(c3)C(F)(F)c3cc(-c5c[nH]c([C@@H]6CCCN6C(=O)[C@@H](NC(=O)OC)C(C)C)n5)ccc3-4)cc2[nH]1)C(C)C (single isomer, unassigned) [Compound 5b] | 0.228 | 0.63 | 0.21 | – | – | > 984 | – | – | –
5 | COC(=O)N[C@H](C(=O)N1CCCC1c1[nH]c2cc(-c3ccc(-c4ccc(-c5cnc([C@@H]6CCCN6C(=O)[C@@H](NC(=O)OC)C(C)C)[nH]5)cc4)cc3)ccc2c(=O)c1F)C(C)C (single isomer, unassigned) [Compound 18a] | 0.03 | 0.037 | 0.011 | > 984 | > 984 | – | – | – | –
6 | COC(=O)N[C@H](C(=O)N1CCCC1c1[nH]c2cc(-c3ccc(-c4ccc(-c5cnc([C@@H]6CCCN6C(=O)[C@@H](NC(=O)OC)C(C)C)[nH]5)cc4)cc3)ccc2c(=O)c1F)C(C)C (single isomer, unassigned) [Compound 18b] | 4.4 | 6.7 | 65.6 | – | – | > 984 | – | – | –
7 | COC(=O)N[C@H](C(=O)N1CCC[C@H]1c1ncc(-c2ccc3c(c2)C(F)(F)c2cc(-c4ccc5c(=O)cc([C@@H]6C[C@@H]7CCCC[C@@H]7N6C(=O)[C@@H](NC(=O)OC)C(C)C)[nH]c5c4)ccc2-3)[nH]1)C(C)C [Compound 6] | – | – | – | > 984 | > 984 | – | 0.012 | 0.013 | 0.005
8 | COC(=O)N[C@H](C(=O)N1CCC[C@H]1c1cc(=O)c2cc(F)c(-c3ccc(-c4ccc(-c5cnc([C@@H]6CCCN6C(=O)[C@@H](NC(=O)OC)C(C)C)[nH]5)cc4)cc3)cc2[nH]1)C(C)C [Compound 7] | – | – | – | > 984 | > 984 | – | 0.008 | 0.021 | 0.042
9 | COC(=O)N[C@H](C(=O)N1CCC[C@H]1c1ncc(-c2ccc3c(c2)C(F)(F)c2cc(-c4ccc5c(=O)cc([C@@H]6[C@H]7CC[C@H](C7)N6C(=O)[C@@H](NC(=O)OC)C(C)C)[nH]c5c4)ccc2-3)[nH]1)C(C)C [Compound 8] | – | – | – | 770 | > 984 | – | 0.004 | 0.005 | 0.003
10 | COC(=O)N[C@H](C(=O)N1CCC[C@H]1c1nc(-c2ccc(-c3ccc(-c4ccc5c(=O)nc([C@@H]6CCCN6C(=O)[C@@H](NC(=O)OC)C(C)C)[nH]c5c4)cc3)cc2)c[nH]1)C(C)C [Compound 11] | – | – | – | > 984 | > 984 | – | 0.149 | 0.025 | 1.47
11 | COC(=O)N[C@H](C(=O)N1CCC[C@H]1c1ncc(-c2ccc3c(c2)C(F)(F)c2cc(-c4ccc5c(=O)[nH]c([C@@H]6CCCN6C(=O)[C@@H](NC(=O)OC)C(C)C)nc5c4)ccc2-3)[nH]1)C(C)C [Compound 12] | – | – | – | – | > 984 | – | 0.007 | 0.005 | 0.047
12 | COC(=O)N[C@H](C(=O)N1CCC[C@H]1C1=NS(=O)(=O)c2ccc(-c3ccc4c(c3)C(F)(F)c3cc(-c5cnc([C@@H]6CCCN6C(=O)[C@@H](NC(=O)OC)C(C)C)[nH]5)ccc3-4)cc2N1)C(C)C [Compound 14] | – | – | – | > 984 | > 984 | – | 0.008 | 0.017 | 0.005
13 | COC(=O)N[C@H](C(=O)N1CCC[C@H]1C1=NC2(COC2)c2ccc(-c3ccc4c(c3)C(F)(F)c3cc(-c5cnc([C@@H]6CCCN6C(=O)[C@@H](NC(=O)OC)C(C)C)[nH]5)ccc3-4)cc2N1)C(C)C [Compound 16] | – | – | – | > 984 | > 984 | – | 0.011 | 0.033 | 0.04
14 | COC(=O)N[C@H](C(=O)N1CCC[C@H]1C1=NC2(COC2)c2ccc(-c3ccc(-c4ccc(-c5cnc([C@@H]6CCCN6C(=O)[C@@H](NC(=O)OC)C(C)C)[nH]5)cc4)cc3)cc2N1)C(C)C [Compound 20] | – | – | – | > 984 | > 984 | – | 0.023 | < 0.019 | 0.46
15 | COC(=O)N[C@H](C(=O)N1CCC[C@H]1C1=NS(=O)(=O)c2ccc(-c3ccc(-c4ccc(-c5c[nH]c([C@@H]6CCCN6C(=O)[C@@H](NC(=O)OC)C(C)C)n5)cc4)cc3)cc2N1)C(C)C [Compound 22] | – | – | – | > 984 | > 984 | – | 0.012 | 0.012 | 0.054
16 | COC(=O)N[C@H](C(=O)N1CC2(C[C@H]1c1ncc(-c3ccc4c(c3)C(F)(F)c3cc(-c5ccc6c(=O)[nH]c([C@@H]7C[C@@H]8CCCC[C@@H]8N7C(=O)[C@@H](NC(=O)OC)C(C)C)nc6c5)ccc3-4)[nH]1)OCCO2)C(C)C [Compound 23] | – | – | – | > 984 | > 984 | – | 0.006 | 0.005 | 0.005
